This note sets out measurements from ChEMBL document CHEMBL5034043, “Bifunctional Compounds as SMARCA2 Degraders for Treating Cancer” (ACS Med Chem Lett, 2022).

The term DC50 denotes the midpoint of the concentration-degradation curve. High values mean degradation only at high concentration, low ones degradation at low concentration.

Sequence of SWI/SNF-related matrix-associated actin-dependent regulator of chromatin subfamily A member 2 (P51531 whole entry): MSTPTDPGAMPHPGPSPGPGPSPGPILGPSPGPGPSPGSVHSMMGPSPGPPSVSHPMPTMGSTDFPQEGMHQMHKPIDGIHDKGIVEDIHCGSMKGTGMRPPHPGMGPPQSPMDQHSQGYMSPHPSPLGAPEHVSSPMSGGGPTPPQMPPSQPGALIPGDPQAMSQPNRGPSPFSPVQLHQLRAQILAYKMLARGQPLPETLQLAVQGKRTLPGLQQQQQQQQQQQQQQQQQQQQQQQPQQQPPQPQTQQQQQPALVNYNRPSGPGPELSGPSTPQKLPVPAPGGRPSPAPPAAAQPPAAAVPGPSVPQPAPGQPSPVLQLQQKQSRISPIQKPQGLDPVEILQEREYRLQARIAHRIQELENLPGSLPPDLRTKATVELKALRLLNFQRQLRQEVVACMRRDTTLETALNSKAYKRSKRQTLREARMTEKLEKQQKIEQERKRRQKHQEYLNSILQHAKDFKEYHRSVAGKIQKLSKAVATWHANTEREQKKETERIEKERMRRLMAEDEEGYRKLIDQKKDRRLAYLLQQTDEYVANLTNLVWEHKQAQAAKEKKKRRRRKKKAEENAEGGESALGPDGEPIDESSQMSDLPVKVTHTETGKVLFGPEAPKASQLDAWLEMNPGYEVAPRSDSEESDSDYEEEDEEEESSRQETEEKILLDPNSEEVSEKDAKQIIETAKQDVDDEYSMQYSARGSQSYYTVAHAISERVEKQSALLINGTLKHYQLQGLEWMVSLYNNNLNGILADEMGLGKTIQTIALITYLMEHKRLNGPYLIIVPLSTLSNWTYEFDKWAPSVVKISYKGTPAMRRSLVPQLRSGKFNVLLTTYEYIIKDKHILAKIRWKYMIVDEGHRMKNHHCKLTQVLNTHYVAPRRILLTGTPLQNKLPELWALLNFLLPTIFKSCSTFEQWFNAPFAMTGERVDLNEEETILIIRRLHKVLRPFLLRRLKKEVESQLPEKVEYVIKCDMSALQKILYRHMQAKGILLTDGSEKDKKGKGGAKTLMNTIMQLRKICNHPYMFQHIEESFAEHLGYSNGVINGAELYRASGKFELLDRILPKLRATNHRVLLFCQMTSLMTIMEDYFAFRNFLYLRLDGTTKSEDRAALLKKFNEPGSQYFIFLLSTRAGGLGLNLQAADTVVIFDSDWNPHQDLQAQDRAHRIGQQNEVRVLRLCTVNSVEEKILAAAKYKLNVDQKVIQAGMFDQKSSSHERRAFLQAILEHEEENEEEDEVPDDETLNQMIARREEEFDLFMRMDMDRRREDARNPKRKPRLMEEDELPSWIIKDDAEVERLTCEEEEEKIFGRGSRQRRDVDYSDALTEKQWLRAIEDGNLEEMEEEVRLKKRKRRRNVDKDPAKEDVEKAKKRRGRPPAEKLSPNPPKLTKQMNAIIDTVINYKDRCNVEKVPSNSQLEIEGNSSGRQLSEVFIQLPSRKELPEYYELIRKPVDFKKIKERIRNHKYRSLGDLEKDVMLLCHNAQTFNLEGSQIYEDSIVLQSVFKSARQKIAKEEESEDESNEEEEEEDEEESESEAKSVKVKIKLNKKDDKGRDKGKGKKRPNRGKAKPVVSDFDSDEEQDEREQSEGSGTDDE

This test concerns the target SWI/SNF-related matrix-associated actin-dependent regulator of chromatin subfamily A member 2 (Homo sapiens, UniProt P51531). Description: Induction of degradation of HiBit-tagged SMARCA2 in human A549 cells incubated for 6 hrs by NanoGlo HiBiT lytic assay. The test is classed as cell-based.
In turn, `Nc1nnc(-c2cc(F)ccc2O)cc1N1CC2CCC(C1)N2c1cccc(CN2CCN(C(=O)C3CCN(c4ccc5c(c4)C(=O)N(C4CCC(=O)NC4=O)C5=O)CC3)CC2)c1` (stereo unspecified) showed a DC50 of 3 nM. As for `Nc1nnc(-c2ccccc2O)cc1N1CC(Oc2cccc(CN3CCN(C(=O)CN4CCC(c5ccc(NC6CCC(=O)NC6=O)cc5)CC4)CC3)c2)C1` (stereo unspecified), the figure is 3 nM; as for `Nc1nnc(-c2ccccc2O)cc1N1CC2CCC(C1)N2c1cccc(OCCN2CCN(CCCC3CCN(c4ccc5c(c4)C(=O)N(C4CCC(=O)NC4=O)C5=O)CC3)CC2)c1` (stereo unspecified), 2 nM. The compound `Nc1nnc(-c2ccccc2O)cc1N1CCN(c2cccc(CN3CCN(C(=O)C4CCN(c5ccc6c(c5)C(=O)N(C5CCC(=O)NC5=O)C6=O)CC4)CC3)c2)C2(CC2)C1` (stereo unspecified) had a DC50 of 4 nM. As to `Nc1nnc(-c2ccccc2O)cc1N1CC2CCC(C1)N2c1cccc(OCCN2CCN(CC3CCN(c4ccc5c(c4)C(=O)N(C4CCC(=O)NC4=O)C5=O)CC3)CC2)c1` (stereo unspecified), half-maximal degradation (DC50) was put at 2 nM. Turning to `Nc1nnc(-c2ccccc2O)cc1N1CCC(C(=O)N2CCC(C(=O)N3CCN(c4ccc(C5CCC(=O)NC5=O)cc4)CC3)CC2)(c2ccccc2)CC1` (stereo unspecified), it took 3 nM to reach half-maximal degradation (DC50).
